Measured values as given in patent publication US20220168431A1, “METHODS OF TREATING CANCER USING TRIMETAZIDINE-BASED COMPOUNDS” (IMBRIA PHARMACEUTICALS, INC., priority 2019, published 2022).

Tests used:
Opiate δ1 (OP1, DOP) = Opiate δ1 (OP1, DOP) (Homo sapiens, UniProt P41143); type: binding; settings: 10 μM CV-8814
Tachykinin NK1 = Tachykinin NK1 (Homo sapiens, UniProt P25103); type: binding; settings: 10 μM CV-8814
Chemokine CCR1 = Chemokine CCR1 (Homo sapiens, UniProt P32246); type: binding; settings: 10 μM CV-8814
Sequence of Chemokine CCR1 (P32246 whole entry): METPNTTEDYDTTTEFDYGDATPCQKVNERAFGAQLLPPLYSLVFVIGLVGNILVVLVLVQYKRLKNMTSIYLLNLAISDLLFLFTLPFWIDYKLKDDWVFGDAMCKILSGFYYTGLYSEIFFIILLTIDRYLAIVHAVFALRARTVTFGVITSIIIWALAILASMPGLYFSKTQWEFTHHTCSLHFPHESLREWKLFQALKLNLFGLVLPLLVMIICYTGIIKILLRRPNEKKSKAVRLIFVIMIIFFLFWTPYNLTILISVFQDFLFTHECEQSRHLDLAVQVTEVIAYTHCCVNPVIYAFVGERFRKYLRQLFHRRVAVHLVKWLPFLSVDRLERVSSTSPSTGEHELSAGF

Muscarinic M3 = Muscarinic M3 (Homo sapiens, UniProt P20309); type: binding; settings: 10 μM CV-8814
[1] = target: Peptidase, CTSG (Cathepsin G) (Homo sapiens, UniProt P08311); type: biochemical; settings: 10 μM CV-8814
[2] = target: Cholecystokinin CCK2 (CCKB) (Homo sapiens, UniProt P32239); type: binding; settings: 10 μM CV-8814
PPARγ = PPARγ (Homo sapiens, UniProt P37231); type: binding; settings: 10 μM CV-8814
Melanocortin MC1 = Melanocortin MC1 (Homo sapiens, UniProt Q01726); type: binding; settings: 10 μM CV-8814
Sequence of Melanocortin MC1 (Q01726 whole entry): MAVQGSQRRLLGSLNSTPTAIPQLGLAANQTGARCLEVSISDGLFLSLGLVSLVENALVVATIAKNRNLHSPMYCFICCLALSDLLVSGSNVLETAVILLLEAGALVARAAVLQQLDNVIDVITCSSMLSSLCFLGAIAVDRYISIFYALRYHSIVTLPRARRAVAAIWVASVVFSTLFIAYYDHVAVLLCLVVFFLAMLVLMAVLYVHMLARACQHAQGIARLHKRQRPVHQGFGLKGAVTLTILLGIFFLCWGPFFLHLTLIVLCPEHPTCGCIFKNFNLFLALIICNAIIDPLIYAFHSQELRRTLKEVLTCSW

[3] = target: Transporter, Serotonin (5-Hydroxytryptamine) (SERT) (Homo sapiens, UniProt P31645); type: binding; settings: 10 μM CV-8814
Neuropeptide Y Y1 = Neuropeptide Y Y1 (Homo sapiens, UniProt P25929); type: binding; settings: 10 μM CV-8814
[4] = target: Nicotinic Acetylcholine α1, Bungarotoxin (Homo sapiens, UniProt P02708+P07510+Q07001); experiment: biochemical; type: binding
Glucocorticoid = Glucocorticoid (Homo sapiens, UniProt P04150); type: binding; settings: 10 μM CV-8814
Sequence of Glucocorticoid (P04150 whole entry): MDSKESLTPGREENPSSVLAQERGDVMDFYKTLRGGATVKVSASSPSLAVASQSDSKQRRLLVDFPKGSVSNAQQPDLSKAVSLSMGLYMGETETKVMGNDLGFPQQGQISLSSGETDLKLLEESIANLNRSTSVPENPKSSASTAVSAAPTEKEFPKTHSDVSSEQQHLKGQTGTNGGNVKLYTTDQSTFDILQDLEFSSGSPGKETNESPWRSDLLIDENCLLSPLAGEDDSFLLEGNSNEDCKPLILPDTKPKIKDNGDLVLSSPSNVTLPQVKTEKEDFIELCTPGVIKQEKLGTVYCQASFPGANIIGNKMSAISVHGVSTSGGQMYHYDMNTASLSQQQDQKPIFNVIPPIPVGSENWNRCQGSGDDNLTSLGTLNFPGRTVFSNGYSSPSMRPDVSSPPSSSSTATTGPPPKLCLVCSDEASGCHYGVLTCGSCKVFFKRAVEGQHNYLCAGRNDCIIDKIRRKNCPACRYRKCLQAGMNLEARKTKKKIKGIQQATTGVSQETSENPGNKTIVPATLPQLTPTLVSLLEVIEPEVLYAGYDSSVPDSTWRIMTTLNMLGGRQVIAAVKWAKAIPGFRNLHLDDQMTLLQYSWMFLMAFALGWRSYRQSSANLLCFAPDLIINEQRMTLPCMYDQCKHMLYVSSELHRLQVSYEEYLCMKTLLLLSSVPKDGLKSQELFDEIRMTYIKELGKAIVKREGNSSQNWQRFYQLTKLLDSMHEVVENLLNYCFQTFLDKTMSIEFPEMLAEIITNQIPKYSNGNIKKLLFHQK

Dopamine D1 = Dopamine D1 (Homo sapiens, UniProt P21728); type: binding; settings: 10 μM CV-8814
Sequence of Dopamine D1 (P21728 whole entry): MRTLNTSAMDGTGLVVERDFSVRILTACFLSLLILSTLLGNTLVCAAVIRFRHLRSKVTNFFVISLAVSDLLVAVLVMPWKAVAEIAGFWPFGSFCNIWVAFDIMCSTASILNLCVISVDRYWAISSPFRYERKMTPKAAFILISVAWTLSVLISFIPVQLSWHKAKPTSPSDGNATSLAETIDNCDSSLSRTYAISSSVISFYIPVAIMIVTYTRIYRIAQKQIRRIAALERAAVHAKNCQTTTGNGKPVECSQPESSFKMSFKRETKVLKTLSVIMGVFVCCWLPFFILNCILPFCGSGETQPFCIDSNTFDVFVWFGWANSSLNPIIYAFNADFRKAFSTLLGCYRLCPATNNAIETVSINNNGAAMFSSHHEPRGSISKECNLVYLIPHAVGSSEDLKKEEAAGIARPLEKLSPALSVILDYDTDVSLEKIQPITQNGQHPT

Adrenergic β2 = Adrenergic β2 (Homo sapiens, UniProt P07550); type: binding; settings: 10 μM CV-8814
[5] = target: Platelet Activating Factor (PAF) (Homo sapiens, UniProt P25105); type: binding; settings: 10 μM CV-8814
Histamine H2 = Histamine H2 (Homo sapiens, UniProt P25021); type: binding; settings: 10 μM CV-8814
Glutamate, NMDA, Glycine = Glutamate, NMDA, Glycine (Rattus norvegicus, UniProt P35439); type: binding; settings: 10 μM CV-8814
Opiate κ (OP2, KOP) = Opiate κ (OP2, KOP) (Homo sapiens, UniProt P41145); type: binding; settings: 10 μM CV-8814
Adrenergic β1 = Adrenergic β1 (Homo sapiens, UniProt P08588); type: binding; settings: 10 μM CV-8814
[6] = target: Peptidase, Angiotensin Converting Enzyme (Oryctolagus cuniculus, UniProt P12822); type: biochemical, rabbit; settings: 10 μM CV-8814
Dopamine D2L = Dopamine D2L (Homo sapiens, UniProt P14416); type: binding; settings: 10 μM CV-8814
Sequence of Dopamine D2L (P14416 whole entry): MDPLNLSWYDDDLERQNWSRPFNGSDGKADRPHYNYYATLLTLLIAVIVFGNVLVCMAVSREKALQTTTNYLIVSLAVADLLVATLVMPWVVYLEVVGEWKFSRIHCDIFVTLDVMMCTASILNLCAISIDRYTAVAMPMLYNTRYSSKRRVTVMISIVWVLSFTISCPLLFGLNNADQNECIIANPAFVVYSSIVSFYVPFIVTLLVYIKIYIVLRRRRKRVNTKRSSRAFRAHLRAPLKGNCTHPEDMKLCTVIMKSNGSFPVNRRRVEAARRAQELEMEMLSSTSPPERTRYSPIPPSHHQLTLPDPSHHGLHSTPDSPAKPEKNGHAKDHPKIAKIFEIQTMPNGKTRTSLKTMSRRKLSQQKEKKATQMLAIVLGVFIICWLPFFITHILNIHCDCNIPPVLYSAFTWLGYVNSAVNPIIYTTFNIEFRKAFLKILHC

Histamine H1 = Histamine H1 (Homo sapiens, UniProt P35367); type: binding; settings: 10 μM CV-8814
Sequence of Histamine H1 (P35367 whole entry): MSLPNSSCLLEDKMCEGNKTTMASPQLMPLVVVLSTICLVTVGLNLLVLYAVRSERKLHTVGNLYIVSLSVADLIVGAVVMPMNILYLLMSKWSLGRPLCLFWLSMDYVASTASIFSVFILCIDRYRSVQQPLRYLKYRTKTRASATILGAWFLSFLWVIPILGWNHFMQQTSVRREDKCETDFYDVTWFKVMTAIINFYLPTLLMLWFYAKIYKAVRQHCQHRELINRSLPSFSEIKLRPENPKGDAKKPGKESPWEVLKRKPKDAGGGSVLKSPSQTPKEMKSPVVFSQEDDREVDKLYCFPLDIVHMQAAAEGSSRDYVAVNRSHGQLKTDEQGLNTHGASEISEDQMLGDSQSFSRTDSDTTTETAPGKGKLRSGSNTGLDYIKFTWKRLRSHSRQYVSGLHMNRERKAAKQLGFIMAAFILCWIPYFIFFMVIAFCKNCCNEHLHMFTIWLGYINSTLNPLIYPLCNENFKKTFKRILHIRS

Opiate μ (OP3, MOP) = Opiate μ (OP3, MOP) (Homo sapiens, UniProt P35372); type: binding; settings: 10 μM CV-8814
[7] = target: Serotonin (5-Hydroxytryptamine) 5-HT3 (Homo sapiens, UniProt P46098); type: binding; settings: 10 μM CV-8814
Muscarinic M1 = Muscarinic M1 (Homo sapiens, UniProt P11229); type: binding; settings: 10 μM CV-8814
[8] = target: Serotonin (5-Hydroxytryptamine) 5-HT2B (Homo sapiens, UniProt P41595); type: binding; settings: 10 μM CV-8814
Sequence of Serotonin (5-Hydroxytryptamine) 5-HT2B (P41595 whole entry): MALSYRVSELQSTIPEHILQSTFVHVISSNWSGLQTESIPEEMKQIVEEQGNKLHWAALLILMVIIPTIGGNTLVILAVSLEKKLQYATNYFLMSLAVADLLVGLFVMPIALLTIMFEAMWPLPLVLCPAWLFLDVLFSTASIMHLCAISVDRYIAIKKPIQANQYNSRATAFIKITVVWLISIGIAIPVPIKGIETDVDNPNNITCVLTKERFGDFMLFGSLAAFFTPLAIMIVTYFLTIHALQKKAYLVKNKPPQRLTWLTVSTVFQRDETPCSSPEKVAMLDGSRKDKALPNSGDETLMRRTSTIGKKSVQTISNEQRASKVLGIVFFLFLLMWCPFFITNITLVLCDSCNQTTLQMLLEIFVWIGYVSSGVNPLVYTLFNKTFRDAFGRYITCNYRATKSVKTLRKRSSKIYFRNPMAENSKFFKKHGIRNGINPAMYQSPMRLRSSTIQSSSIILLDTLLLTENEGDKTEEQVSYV

Estrogen ERα = Estrogen ERα (Homo sapiens, UniProt P03372); type: binding; settings: 10 μM CV-8814
Adrenergic α1D = Adrenergic α1D (Homo sapiens, UniProt P25100); type: binding; settings: 10 μM CV-8814
Adrenergic α1B = Adrenergic α1B (Rattus norvegicus, UniProt P15823); type: binding; settings: 10 μM CV-8814
Sequence of Adrenergic α1B (P15823 whole entry): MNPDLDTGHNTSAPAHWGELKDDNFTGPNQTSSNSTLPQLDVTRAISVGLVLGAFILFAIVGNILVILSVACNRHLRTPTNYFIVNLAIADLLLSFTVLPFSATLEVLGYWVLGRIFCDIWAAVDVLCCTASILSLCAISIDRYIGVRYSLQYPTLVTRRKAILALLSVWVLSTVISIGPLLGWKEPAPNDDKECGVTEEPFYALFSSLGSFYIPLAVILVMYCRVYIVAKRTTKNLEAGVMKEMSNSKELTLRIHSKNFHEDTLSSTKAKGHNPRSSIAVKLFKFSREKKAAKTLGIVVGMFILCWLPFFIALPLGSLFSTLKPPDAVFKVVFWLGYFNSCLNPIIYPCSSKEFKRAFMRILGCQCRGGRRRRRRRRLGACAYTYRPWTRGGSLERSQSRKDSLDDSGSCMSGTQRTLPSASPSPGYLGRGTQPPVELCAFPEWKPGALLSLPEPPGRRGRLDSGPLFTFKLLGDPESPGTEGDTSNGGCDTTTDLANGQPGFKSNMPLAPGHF

GABAB1A = GABAB1A (Homo sapiens, UniProt Q9UBS5); type: binding; settings: 10 μM CV-8814
Vasopressin V1A = Vasopressin V1A (Homo sapiens, UniProt P37288); type: binding; settings: 10 μM CV-8814
[9] = target: Transporter, Dopamine (DAT) (Homo sapiens, UniProt Q01959); type: binding; settings: 10 μM CV-8814
Angiotensin AT1 = Angiotensin AT1 (Homo sapiens, UniProt P30556); type: binding; settings: 10 μM CV-8814
[10] = target: Serotonin (5-Hydroxytryptamine) 5-HT2C (Homo sapiens, UniProt P28335); type: binding; settings: 10 μM CV-8814
Cannabinoid CB2 = Cannabinoid CB2 (Homo sapiens, UniProt P34972); type: binding; settings: 10 μM CV-8814
Sequence of Cannabinoid CB2 (P34972 whole entry): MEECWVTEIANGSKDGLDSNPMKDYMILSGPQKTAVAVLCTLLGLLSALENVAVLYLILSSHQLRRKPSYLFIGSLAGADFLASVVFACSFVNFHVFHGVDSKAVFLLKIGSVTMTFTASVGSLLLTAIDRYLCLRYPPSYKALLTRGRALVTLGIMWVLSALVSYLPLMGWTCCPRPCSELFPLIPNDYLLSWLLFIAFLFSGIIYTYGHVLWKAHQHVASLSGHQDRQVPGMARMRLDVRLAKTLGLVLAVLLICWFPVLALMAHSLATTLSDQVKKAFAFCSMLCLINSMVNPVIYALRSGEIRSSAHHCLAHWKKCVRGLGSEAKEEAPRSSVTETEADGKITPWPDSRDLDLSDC

Cyclooxygenase COX-2 = Cyclooxygenase COX-2 (Homo sapiens, UniProt P35354); type: biochemical; settings: 10 μM CV-8814
Sequence of Cyclooxygenase COX-2 (P35354 18-604): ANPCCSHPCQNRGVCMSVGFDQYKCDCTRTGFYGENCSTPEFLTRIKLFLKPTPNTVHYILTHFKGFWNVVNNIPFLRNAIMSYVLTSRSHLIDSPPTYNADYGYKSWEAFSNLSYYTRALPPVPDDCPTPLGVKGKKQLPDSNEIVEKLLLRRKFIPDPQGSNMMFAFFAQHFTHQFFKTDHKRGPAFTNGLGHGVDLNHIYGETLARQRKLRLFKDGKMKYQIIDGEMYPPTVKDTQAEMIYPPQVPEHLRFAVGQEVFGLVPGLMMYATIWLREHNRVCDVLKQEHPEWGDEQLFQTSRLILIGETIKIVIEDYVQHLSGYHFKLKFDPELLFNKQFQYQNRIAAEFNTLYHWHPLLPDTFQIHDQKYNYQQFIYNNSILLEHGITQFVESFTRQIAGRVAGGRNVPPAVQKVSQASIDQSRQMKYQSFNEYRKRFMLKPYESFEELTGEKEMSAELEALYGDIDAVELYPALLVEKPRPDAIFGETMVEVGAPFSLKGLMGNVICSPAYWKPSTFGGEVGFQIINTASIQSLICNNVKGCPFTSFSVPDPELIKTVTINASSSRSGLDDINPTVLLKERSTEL

[11] = target: Cholinesterase, Acetyl, ACES (Homo sapiens, UniProt P22303); type: biochemical; settings: 10 μM CV-8814
Adrenergic α2A = Adrenergic α2A (Homo sapiens, UniProt P08913); type: binding; settings: 10 μM CV-8814
[12] = target: Protein Tyrosine Kinase, LCK (Homo sapiens, UniProt P06239); type: biochemical; settings: 10 μM CV-8814

Measured: inhibition at 10 µM

COc1ccc(CN2CCN(CCO)CC2)c(OC)c1OC [CV-8814, 2-(4-(2,3,4-trimethoxybenzyl)piperazin-1-yl)ethan-1-01]
< 50%: all assays above
